Experimental data taken from patent US8461362B2, “Protein phosphatase 2A-activating agents” (The Ohio State University Research Foundation, priority 2009, dated 2013).

Columns and labels:
Assay type in all cases: cell-based
[1] = test system: AR promoter; experiment: AR promoter-luciferase reporter assay (hAR-Luc) in LNCaP cells; details: hAR-Luc transfected LNCaP cells, 72 h of exposure
Procedure: Transfection and Luciferase Assay.
Cells were transfected with 5 μg of the AR-linked luciferase reporter (hAR-Luc) plasmid in an Amaxa Nucleofector using a cell line-specific nucleofector kit according to the manufacturer's protocol (Amaxa Inc. Gaithersburg, Md.) and then seeded in T25 flasks at 3×10^5 cells per flask for 48 h. The transfection efficiency was determined by transfecting cells with 3 μg of pmaxGFP plasmid followed by fluorescence microscopy to detect green fluorescent protein expression. For each transfection, herpes simplex virus (HSV) thymidine kinase promoter-driven Renilla reniformis luciferase was used as an internal control for normalization. For the luciferase reporter gene assay, after transfection, cells were cultured in 24-well plates in 10% FBS-supplemented RPMI 1640 for 48 h, subjected to different treatments in 2.5% FBS-supplemented medium for the indicated times, collected, and lysed with passive lysis buffer (Promega). Aliquots of lysates (50 μL) were mixed with 75 μL of luciferase substrate (Promega) in 96-well plates, and luciferase activities were monitored in a MicroLumaPlus LB96V luminometer (Berthold Technologies, Oak Ridge, Tenn.) with the WinGlow software package. All transfection experiments were carried out in six replicates.

[2] = test system: Sp1 binding to AR promoter; experiment: ChIP assay of Sp1 binding to AR promoter in LNCaP cells; details: 72 h
Procedure: Chromatin Immunoprecipitation (ChIP).
After drug treatment, LNCaP cells (2×10^7) in 50 mL of PBS were cross-linked with 1.35 mL of 37% formaldehyde (final concentration 1%) for 15 min at room temperature. Glycine solution (1 mol/L) was added to a final concentration of 125 mmol/L to stop the cross-linking reaction. Cells were harvested and washed twice with 5 mL of PBS, and the cell pellets were lysed in a ChIP lysis buffer containing (50 mM HEPES-KOH at pH 7.5, 140 mM NaCl, 1% Triton X-100, 0.1% sodium deoxycholate, 2 mM AEBSF, 1 mM EDTA, 130 μM bestatin, […], 1 μM leupeptin, and 0.3 μM aprotinin). The suspension was sonicated at 20% output in a Virsonic 300 sonicator with 6 sets of 10-sec pulses (resulting in an average fragment size of 0.8-0.2 kb) and centrifuged for 10 min at 15,000×g at 4° C. One-μL aliquots of the transparent supernatants were taken for determining protein concentrations by BCA assays. Immunoprecipitation was carried out as described above. Aliquots of 1 mg proteins were used for immunoprecipitation using 4 μg of anti-Sp1 antibody followed by protein A/G agarose beads. […]

[3] = test system: Akt, ERK, JNK and p38 phosphorylation in PC-3 cells; experiment: Western blot of kinase phosphorylation in PC-3 cells
Procedure: Cells cultured in T25 flasks were collected by scraping, and cell pellets were washed once with PBS. Cells were lysed in a lysis buffer consisting of 1% SDS, 10 mM EDTA and 50 mM Tris-HCl, pH 8.1, in the presence of a commercial protease inhibitor cocktail from Aldrich-Sigma (2 mM AEBSF, 1 mM EDTA, 130 μM bestatin, 14 μM E-64, 1 μM leupeptin, and 0.3 μM aprotinin). Following a 10-sec sonication using 20% output in a Virsonic 300 sonicator (Virtis, Gardiner N.Y.) to disrupt cellular organelles and genomic DNA, cell lysates were centrifuged at 15,200×g for 15 minutes. One μL of the suspension was used for protein determination using a colorimetric BCA assay (Pierce, Rockford, Ill.), and to the remaining solution was added an equivalent volume of 2×SDS-polyacrylamide gel electrophoresis sample loading buffer (62.5 mM Tris-HCl, pH 6.8, 4% SDS, 5% β-mercaptoethanol, 20% glycerol, and 0.1% bromophenol blue), and boiled for 5 min. Equal amounts of proteins were resolved in 8% SDS-polyacrylamide gels, and transferred to nitrocellulose membranes using a semidry transfer cell. The transblotted membrane was washed twice with Tris-buffered saline containing 0.1% Tween 20 (TBST). After blocking with TBST containing 5% nonfat milk for 40 min, the membrane was incubated with the appropriate primary antibody in TBST-1% nonfat milk at 4° C. overnight. […]

| SMILES | AR gene transcription (luciferase reporter activity) [1] | Sp1 binding to AR promoter [2] | phosphorylation levels of Akt, ERK, JNK, p38 [3] |
| --- | --- | --- | --- |
| Cc1c(C)c2c(c(C)c1OC(=O)CCC(=O)O)CCC(C)(CCCC(C)CCCC(C)C)O2 (stereo not drawn) [TS-1, succinic acid mono-[2-(4,8-dimethyl-nonyl)-2,5,7,8-tetramethylchroman-6-yl]ester] | dose-dependent inhibitory effect | diminished the Sp1 binding to AR promoter in a dose-dependent manner | also noted in PC-3 cells |
| Cc1c(C)c2c(c(C)c1OC(=O)CCC(=O)O)CC[C@@](C)(CCC[C@H](C)CCC[C@H](C)CCCC(C)C)O2 [VES, α-tocopheryl succinate] | dose-dependent inhibitory effect | diminished the Sp1 binding to AR promoter in a dose-dependent manner | also noted in PC-3 cells |
